Measurements published in patent US20060166989A1, “2-naphthamide derivatives” (Bayer Healthcare AG, priority 2002, published 2006).

Assays:
IP receptor = molecular target: T1, IP receptor (Homo sapiens, UniProt P43119); assay: Iloprost-induced cAMP production assay in HEL cells (Assay 2); format: cell-based; settings: read-out: Activity grade assay 2
T1 construct: HEL cells were collected with centrifugation and washed with cAMP assay buffer; host or cells: HEL 92.1.7 human erythroleukemia cells
Protocol: [Iloprost-Induced cAMP Production Assay in HEL Cells] (Assay 2)
HEL cells were collected with centrifugation and washed with cAMP assay buffer (CAB: Hank's balanced salt solution, 17 mM Hepes, 0.1% bovine serum albumin, 1 mM IBMX, 0.4% DMSO, and 1 mM L-ascorbic acid sodium salt (pH 7.4)). Cells were suspended at the density of 2.5×10^5 cells/ml in CAB, and twenty thousand cells in 80 μl aliquot of cell suspension were put in a well of 96 well plate (Falcon). Then, 10 μl of compound solution diluted with 1% DMSO in CAB or buffer alone was added. The plate was incubated at 37° C. for 30 min. Then, another 10 μl containing 100 nM iloprost in CAB or buffer alone was added and further incubated at 37° C. for 30 min. cAMP content in the well was measured by a cAMP ELISA kit (Applied Biosystems, USA).
Results of Iloprost-induced cAMP production assay (Assay2) are shown in Examples and tables of the Examples below. For practical reasons, the compounds are grouped in three classes of activity as follows: A(=or<)0.1μM<B(=or<)1μM<C

T1 sequence (P43119 whole entry): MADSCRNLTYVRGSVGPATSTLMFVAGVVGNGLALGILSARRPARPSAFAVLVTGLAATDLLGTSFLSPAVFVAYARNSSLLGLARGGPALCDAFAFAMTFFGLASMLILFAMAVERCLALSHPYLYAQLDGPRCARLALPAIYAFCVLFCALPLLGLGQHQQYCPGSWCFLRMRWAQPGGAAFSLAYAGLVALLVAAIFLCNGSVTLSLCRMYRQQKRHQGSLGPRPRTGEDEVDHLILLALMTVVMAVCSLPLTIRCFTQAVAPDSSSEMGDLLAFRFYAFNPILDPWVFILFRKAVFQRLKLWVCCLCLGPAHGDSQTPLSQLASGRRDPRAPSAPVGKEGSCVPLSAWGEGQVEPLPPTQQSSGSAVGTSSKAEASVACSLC

IC50 (IP receptor) | melting point | SMILES
0.1 to 1 µM | 167 to 168 °C | Cc1cc(C)cc(COc2ccc3cc(C(=O)NC(Cc4ccccc4)C(=O)O)ccc3c2)c1 (stereo not shown) [Example 1-57]
0.1 to 1 µM | 189 °C | Cc1ccc(COc2ccc3cc(C(=O)NC(Cc4ccccc4)C(=O)O)ccc3c2)cc1C (stereo not shown) [Example 1-58]
0.1 to 1 µM | 199 °C | O=C(NC(Cc1ccccc1)C(=O)O)c1ccc2cc(OCc3ccc(F)cc3F)ccc2c1 (stereo not shown) [Example 1-59]
0.1 to 1 µM | 170 to 172 °C | CC(Oc1ccc2cc(C(=O)NC(Cc3ccccc3)C(=O)O)ccc2c1)c1ccccc1 (stereo not shown) [Example 1-60]
< 0.1 µM | 193 to 194 °C | O=C(NC(Cc1ccccc1)C(=O)O)c1ccc2cc(OCc3cccc([N+](=O)[O-])c3)ccc2c1 (stereo not shown) [Example 1-61]
0.1 to 1 µM | 208 °C | Cc1nc(COc2ccc3cc(C(=O)NC(Cc4ccccc4)C(=O)O)ccc3c2)cs1 (stereo not shown) [Example 1-62]
0.1 to 1 µM | 195 °C | O=C(NC(Cc1ccccc1)C(=O)O)c1ccc2cc(OCCCn3cccc3)ccc2c1 (stereo not shown) [Example 1-63]
0.1 to 1 µM | 182 °C | O=C(NC(Cc1ccccc1)C(=O)O)c1ccc2cc(OCCCc3ccccc3)ccc2c1 (stereo not shown) [Example 1-64]
0.1 to 1 µM | 209 °C | CCCCOc1ccc2cc(C(=O)NC(Cc3ccccc3)C(=O)O)ccc2c1 (stereo not shown) [Example 1-65]
> 1 µM | 238 to 240 °C | Nc1ccc(CC(NC(=O)c2ccc3cc(OCc4ccccc4)ccc3c2)C(=O)O)cc1 (stereo not shown) [Example 1-66]
< 0.1 µM | 226 to 227 °C | O=C(NC(Cc1ccc2ccccc2c1)C(=O)O)c1ccc2cc(OCc3ccccc3)ccc2c1 (stereo not shown) [Example 1-67]
> 1 µM | 236 to 237 °C | CS(=O)(=O)Nc1ccc(CC(NC(=O)c2ccc3cc(OCc4ccccc4)ccc3c2)C(=O)O)cc1 (stereo not shown) [Example 1-68]
0.1 to 1 µM | 260 to 262 °C (dec.) | O=C(NC(Cc1ccncc1)C(=O)O)c1ccc2cc(OCc3ccccc3)ccc2c1 (stereo not shown) [Example 1-69]
0.1 to 1 µM | 220 °C | O=C(NC(Cc1ccccc1)C(=O)O)c1ccc2cc(OCc3cccc4ccccc34)ccc2c1 (stereo not shown) [Example 1-70]
< 0.1 µM | 219 to 221 °C | O=C(NC(Cc1ccc(I)cc1)C(=O)O)c1ccc2cc(OCc3ccccc3)ccc2c1 (stereo not shown) [Example 1-71]
> 1 µM | 223 to 225 °C | O=C(NC(CCc1ccccc1)C(=O)O)c1ccc2cc(OCc3ccccc3)ccc2c1 (stereo not shown) [Example 1-72]
0.1 to 1 µM | 250 to 252 °C | O=C(NC(Cc1ccc(-c2ccccc2)cc1)C(=O)O)c1ccc2cc(OCc3ccccc3)ccc2c1 (stereo not shown) [Example 1-73]
0.1 to 1 µM | 220 °C | O=C(NC(Cc1ccccc1)C(=O)O)c1ccc2cc(OCC3CCCCC3)ccc2c1 (stereo not shown) [Example 1-74]
0.1 to 1 µM | 247 to 249 °C (dec.) | O=C(NC(Cc1ccc(-c2ccncc2)cc1)C(=O)O)c1ccc2cc(OCc3ccccc3)ccc2c1 (stereo not shown) [Example 1-75]
> 1 µM | 216 to 218 °C (dec.) | O=C(NC(Cc1ccc(N2CCOCC2)cc1)C(=O)O)c1ccc2cc(OCc3ccccc3)ccc2c1 (stereo not shown) [Example 1-76]
0.1 to 1 µM | 113 °C | O=C(NC(Cc1ccccc1)C(=O)O)c1ccc2cc(OCCc3cccnc3)ccc2c1 (stereo not shown) [Example 1-77]

IC50 (IP receptor) | melting point | SMILES
0.1 to 1 µM | 143 °C | O=C(NC(Cc1ccccc1)C(=O)O)c1ccc2cc(OCCc3ccccn3)ccc2c1 (stereo not shown) [Example 1-78]
< 0.1 µM | 236 to 238 °C (dec.) | O=C(NC(Cc1c[nH]c2ccc(F)cc12)C(=O)O)c1ccc2cc(OCc3ccccc3)ccc2c1 (stereo not shown) [Example 1-79]
< 0.1 µM | 275 to 277 °C (dec.) | O=C(NC(Cc1c[nH]c2ncccc12)C(=O)O)c1ccc2cc(OCc3ccccc3)ccc2c1 (stereo not shown) [Example 1-80]
> 1 µM | 234 °C | O=C(NC(Cc1ccccc1)C(=O)O)c1ccc2cc(OCCN3CCCC3)ccc2c1 (stereo not shown) [Example 1-81]
> 1 µM | 215 °C | O=C(NC(Cc1ccccc1)C(=O)O)c1ccc2cc(OCCN3CCCCC3)ccc2c1 (stereo not shown) [Example 1-82]
< 0.1 µM | 190 °C | O=C(NC(Cc1ccccc1)C(=O)O)c1ccc2cc(OCCc3ccncc3)ccc2c1 (stereo not shown) [Example 1-83]
0.1 to 1 µM | 184 °C | CC(Cc1ccccc1)(NC(=O)c1ccc2cc(OCc3ccccc3)ccc2c1)C(=O)O (stereo not shown) [Example 1-84]
< 0.1 µM | 157 °C | O=C(NC(Cc1ccccc1)C(=O)O)c1ccc2cc(OCc3cccc(O)c3)ccc2c1 (stereo not shown) [Example 1-85]
0.1 to 1 µM | 172 °C (dec.) | O=C(NC(Cc1ccccc1)C(=O)O)c1ccc2cc(OCCn3ccnc3)ccc2c1 (stereo not shown) [Example 1-86]
> 1 µM | 252 °C (dec.) | O=C(NC(Cc1ccccc1)C(=O)O)c1ccc2cc(OCc3ccc[n+]([O-])c3)ccc2c1 (stereo not shown) [Example 1-87]
> 1 µM | 180 °C | O=C(NC(Cc1ccccc1)C(=O)O)c1ccc2cc(OCc3cccc(OCC4CCCCC4)c3)ccc2c1 (stereo not shown) [Example 1-88]
0.1 to 1 µM | 179 °C | O=C(NC(Cc1ccccc1)C(=O)O)c1ccc2cc(OCc3cccc(OCC4CC4)c3)ccc2c1 (stereo not shown) [Example 1-89]
0.1 to 1 µM | 172 °C | CCCCOc1cccc(COc2ccc3cc(C(=O)NC(Cc4ccccc4)C(=O)O)ccc3c2)c1 (stereo not shown) [Example 1-90]
< 0.1 µM | 145 °C | CCOc1cccc(COc2ccc3cc(C(=O)NC(Cc4ccccc4)C(=O)O)ccc3c2)c1 (stereo not shown) [Example 1-91]
0.1 to 1 µM | 173 °C | CCCOc1cccc(COc2ccc3cc(C(=O)NC(Cc4ccccc4)C(=O)O)ccc3c2)c1 (stereo not shown) [Example 1-92]
0.1 to 1 µM | 140 °C | CC(C)COc1cccc(COc2ccc3cc(C(=O)NC(Cc4ccccc4)C(=O)O)ccc3c2)c1 (stereo not shown) [Example 1-93]
< 0.1 µM | 160 °C | CC(COc1ccc2cc(C(=O)NC(Cc3ccccc3)C(=O)O)ccc2c1)c1ccccc1 (stereo not shown) [Example 1-94]
< 0.1 µM | 179 °C | O=C(N[C@H](Cc1ccccc1)C(=O)O)c1ccc2cc(OCc3ccccc3)ccc2c1 [Example 2-1, N-[6-(benzyloxy)-2-naphthoyl]-D-phenylalanine]
> 1 µM | 179 to 180 °C | O=C(N[C@@H](Cc1ccccc1)C(=O)O)c1ccc2cc(Oc3ccccc3)ccc2c1 [Example 3-1, N-(6-phenoxy-2-naphthoyl)phenylalanine]
0.1 to 1 µM | 172 °C | O=C(N[C@@H](Cc1ccccc1)C(=O)O)c1ccc2cc(NCc3ccccc3)ccc2c1 [Example 4-1, N-[6-(benzylamino)-2-naphthoyl]phenylalanine]
